According to patent US20250360124A1, “NOVEL RAS INHIBITORS” (KHR BIOTEC GMBH, priority 2022, published 2025):
Where a name gives a salt, the structure may show the parent alone.

Legend:
Type in all cases: cell-based
ASPC1 cells = test: Soft agar colony formation assay, MTT readout; conditions: Homo sapiens, growth in soft agar, colonies stained with MTT, absorbance 570 nm
Experimental: (§1) FIGS. 2a) and 2b): MTT assay for cell growth
(§2) Metabolic activity was quantified using Cell Proliferation Kit I (Roche, Basel, Switzerland). Cells were seeded in 96-well cell culture plates, using 5000 cells per well for NCI-H358 cells. After treatment, 10 μl of MTT solution was added and incubated for 2 h in CO2 incubator. Then 100 μl of solubilization buffer was added to each well and incubated overnight in CO2 incubator. Cell viability, assessed by the amount of metabolized MTT, was quantified by measuring absorbance at 570 nm.
(§3) MTT assay for the growth of different tumor cell lines with RAS mutations in soft agar with Quinacrine dihydrochloride.
(§4) NCI-H358, H358, H2122, ASPC-1, HCT-116, T24 and HT1080 cells were used for the soft agar colony formation assay. After the treatment with Quinacrine dihydrochloride hydrate, the colonies were stained with MTT and the value was quantified by measuring absorbance at 570 nm after solubilization. The results represent mean±SEM from 3 independent experiments.

HCT-116 cells = test: Soft agar colony formation assay, MTT readout; conditions: Homo sapiens, growth in soft agar, colonies stained with MTT, absorbance 570 nm
Experimental: as §1, §2, §3, §4

NCI-H358 cells = test: Soft agar colony formation assay, MTT readout; conditions: Homo sapiens, growth in soft agar, colonies stained with MTT, absorbance 570 nm
Experimental: as §1, §2, §3, §4

HT1080 cells = test: Soft agar colony formation assay, MTT readout; conditions: Homo sapiens, HT-1080, growth in soft agar, colonies stained with MTT, absorbance 570 nm
Experimental: as §1, §2, §3, §4

T24 cells = test: Soft agar colony formation assay, MTT readout; conditions: Homo sapiens, T-24, growth in soft agar, colonies stained with MTT, absorbance 570 nm
Experimental: as §1, §2, §3, §4

NCI-H2122 cells = test: Soft agar colony formation assay, MTT readout; conditions: Homo sapiens, growth in soft agar, colonies stained with MTT, absorbance 570 nm
Experimental: as §1, §2, §3, §4

NRAS G12V = target: T1, NRAS G12V (Homo sapiens, UniProt P01111, G12V); test: NanoBit assay for RAS activation (LgBiT-RAS / SmBiT-CRAF RBD); conditions: N-RAS G12V with CRAF RBD; 2 h with inhibitor, serum free DMEM; FIG. 1
T1 construct: K, N and HRAS G12V (full length) was cloned with Xho I and Bgl II to LgBit; expressed in transfected cells
Experimental: (§5) FIG. 1a) and 1b): NanoBit assay for RAS activation (KRAS G12V, NRAS G12V, HRAS G12V)
(§6) N-terminal LgBiT and C-terminal SmBIT construct was purchased from Promega and K, N and HRAS G12V (full length) was cloned with Xho I and Bgl II to LgBit and CRAF Ras binding domain (1-149) was cloned with EcoRI and Bgl II to SmBit. For transfections, 1 μg or 2 μg of (12 well/6 well) plasmids were transfected into cells with 0.5 mM of PEI reagent in 100 μl or 200 μl PBS. One day after transfection, cells were harvested and seeded into 96 well white plates, half area (Greiner). After an additional day the medium was changed to serum free DMEM and the cells were incubated for 2 h with inhibitors. NanoGlo assay was performed according to the manufacturer's instructions. The luminescence was measured using Tecan infinite (Tecan). DMSO-treated cells were set as 1. The results shown are mean mean±SEM from at least 3 independent experiments.

HRAS G12V = target: T2, HRAS G12V (Homo sapiens, UniProt P01112, G12V); test: as above; conditions: H-RAS G12V with CRAF RBD; 2 h with inhibitor, serum free DMEM; FIG. 1
T2 construct: K, N and HRAS G12V (full length) was cloned with Xho I and Bgl II to LgBit; expressed in transfected cells
Experimental: as §5, §6

KRAS G12V = target: T3, KRAS G12V (Homo sapiens, UniProt P01116, G12V); test: as above; conditions: K-RAS G12V with CRAF RBD; 2 h with inhibitor, serum free DMEM; FIG. 1
T3 construct: K, N and HRAS G12V (full length) was cloned with Xho I and Bgl II to LgBit; expressed in transfected cells
Experimental: as §5, §6

sNF96.2 cells = test: MTT assay for cell viability in 96 well plate, RASOpathie model; conditions: 48 h treatment
KRAS dependent cells = test: MTT assay for cell viability in 96 well cell culture plate; conditions: 48 h treatment, KRAS dependent cells incl. G12C/Y96D mutation, FIG. 3a
Experimental: FIGS. 3a) and 3b): MTT assay for cell viability in 96 well cell culture plate Cells were treated with Quinacrine dihydrochloride hydrate for 48 h and cell viability was evaluated by MTT assay. DMSO-treated cells were set as 1. The results shown are mean±SEM from 3 independent experiments.
G12C/Y96D mutation is normally seen in patients, who develop resistance to G12C inhibitor. Thus, patients, who are resistant to G12C inhibitors can still be treated with Quinacrine dihydrochloride.

T1 sequence (P01111 whole entry G12V): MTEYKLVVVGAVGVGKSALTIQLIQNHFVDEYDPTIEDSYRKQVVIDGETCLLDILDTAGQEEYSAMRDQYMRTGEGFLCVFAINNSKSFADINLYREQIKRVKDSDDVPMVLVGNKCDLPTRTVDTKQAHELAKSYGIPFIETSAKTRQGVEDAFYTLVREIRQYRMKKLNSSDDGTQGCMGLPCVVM
T2 sequence (P01112 whole entry G12V): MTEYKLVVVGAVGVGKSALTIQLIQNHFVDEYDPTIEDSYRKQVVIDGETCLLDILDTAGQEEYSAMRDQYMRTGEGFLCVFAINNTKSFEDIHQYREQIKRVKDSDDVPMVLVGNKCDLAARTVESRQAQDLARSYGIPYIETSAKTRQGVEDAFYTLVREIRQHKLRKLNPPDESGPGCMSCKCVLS
T3 sequence (P01116 1-188 isoform P01116-2 G12V): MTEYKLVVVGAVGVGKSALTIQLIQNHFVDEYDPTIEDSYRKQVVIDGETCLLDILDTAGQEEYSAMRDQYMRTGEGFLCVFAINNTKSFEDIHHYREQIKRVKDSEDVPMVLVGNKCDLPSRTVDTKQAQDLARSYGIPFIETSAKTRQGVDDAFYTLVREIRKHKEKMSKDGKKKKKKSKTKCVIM

IC50 (ASPC1 cells): 4.28 µM
IC50 (HCT-116 cells): 5.5 µM
IC50 (NCI-H358 cells): 5.1 µM
IC50 (HT1080 cells): 149 µM
IC50 (T24 cells): 4 µM
IC50 (NCI-H2122 cells): 2.48 µM
inhibition of RAS activation (NanoBit luminescence) (NRAS G12V): inhibits
inhibition of RAS activation (NanoBit luminescence) (HRAS G12V): inhibits
inhibition of RAS activation (NanoBit luminescence) (KRAS G12V): inhibits
Structure (SMILES): CCN(CC)CCCC(C)Nc1c2ccc(Cl)cc2nc2ccc(OC)cc12 (centres unmarked) [Quinacrine dihydrochloride hydrate, 4-N-(6-chloro-2-methoxyacridin-9-yl)-1-N,1-N-diethylpentane-1,4-diamine;hydrate;dihydrochloride]
IC50 (sNF96.2 cells): 4.51 µM
inhibition of cell viability (KRAS dependent cells): inhibits KRAS dependent cells irrespective of the presence of mutation
